In PMC4513130, “Neuronal Calcium Sensor-1 Binds the D2 Dopamine Receptor and G-protein-coupled Receptor Kinase 1 (GRK1) Peptides Using Different Modes of Interactions” (The Journal of Biological Chemistry, 2015):
One block for each substance: values may come before it.

Assays:
recoverin = conditions: NMR structure, PDB 2I94; orientation opposite to that in NCS-1·GRK1 complex; cited from earlier work
Excerpt: The C-terminal α-helix in both complexes form one edge of the hydrophobic groove. […] Somewhat surprising are the differences observed between the NCS-1 ...

NCS-1 = assay: Crystal structure of peptide complex with Ca2+/NCS-1 (copies bound, buried surface area); format: binding, Rattus norvegicus
Procedure: Purified proteins were equilibrated against 20 mM Tris-HCl, pH 7.5, and concentrated to 1 mM final protein concentration before initiating crystallization trials. For crystallization of the peptide complexes, a 2-fold excess of peptide was added to the protein solution. Crystals were grown at 20 °C using the sitting drop vapor diffusion method. NCS-1 was crystallized in 0.1 M sodium cacodylate, pH 6.5, 0.2 M sodium acetate, and 30% (w/v) PEG 8000, similar to the conditions previously reported ([27]). […]
For the NCS-1·D2R complex, molecular replacement used the structure of human NCS-1 (human and rat NCS-1 have 99% sequence identity; PDB accession 1G8I) and PHASER ([31]), as implemented from within PHENIX ([32]). […] At this stage, electron density for the helix for chain B was readily apparent, and a model for the helix was built in manually using COOT ([33]). […]
The structure of the NCS-1·GRK1 complex was determined using the coordinates from the A chain of the NCS-1 apoprotein and the program MOLREP ([38]), as implemented from within the CCP4 program suite ([39]). […] Electron density for a single GRK1 peptide per NCS-1 monomer, in a helical conformation, was readily detectable. […]
Data for NCS-1ΔCT were processed using MOSFLM ([37]) and SCALA ([30]). […] The four molecular copies of NCS-1ΔCT in this crystal form were readily identified in this way. […]

[1] = Solubility and aggregation
[2] = Size exclusion chromatography-multiangle laser light scattering (MALLS); format: physicochemical; conditions: SEC-MALLS, Superdex 75; 20 mM Tris-HCl, 150 mM NaCl, 1 mM CaCl2, pH 7.5; 1.5 mg/ml injected
Procedure: Measurements were performed on a Dionex BioLC HPLC connected to an 18-angle light scattering detector and a differential refractometer (DAWN HELEOS-II and OPTILab rEX, Wyatt). A Superdex 75 10/300 GL column (GE Healthcare) was used in 20 mM Tris-HCl, 150 mM NaCl, 1 mM CaCl2, pH 7.5, at a flow rate of 0.75 ml/min. Sample volumes of 1 ml were injected at a concentration of 1.5 mg/ml. Samples eluting from the column passed through an in-line DAWN HELEOS-II laser photometer (λ = 658 nm) and an OPTILab rEX refractometer with a QELS dynamic light scattering attachment. Light scattering intensity and eluant refractive index (concentration) were analyzed using ASTRA version 5.3.4.13 software to give a weight-averaged molecular mass. To determine the detector delay volumes and normalization coefficients for the MALLS detector, a BSA sample (Sigma A-8531) was used as reference.

NCS-1ΔCT = assay: NMR (1H-15N HSQC) of Ca2+/NCS-1ΔCT, titration with D2R peptide; format: binding, rat; conditions: 15N Ca2+/NCS-1ΔCT alone
Procedure: NCS-1 was prepared in 50 mM Tris-HCl buffer, pH 6.8, in the presence of 5 mM MgCl2 and 5 mM CaCl2. NMR spectra were recorded at 27 °C on Bruker DRX 800 and 600 MHz Avance II spectrometers equipped with CryoProbes. Data were processed using the Bruker software TopSpin and analyzed using CCPN software ([26]). Sequence-specific backbones were obtained using the HNCA, HN(CO)CA, HNCO, HN(CA)CO, CBCA(CO)NH, CBCANH, HBHA(CO)NH, and HCCH-TOCSY experiments.
FIGURE 9. NMR spectra and structure of rat Ca^2+/NCS-1ΔCT (PDB code 4YRU). A,^1H-^15N heteronuclear single quantum coherence spectra of ^15N Ca^2+/NCS-1ΔCT; B, in the presence of 5-fold excess of D2R peptide in 50 mM Tris-HCl buffer, 50 mM NaCl, 5 mM CaCl2, pH 6.5, 298 K. C, structure of the dimer of NCS-1ΔCT. Left, one monomer is shown as a backbone schematic and the other as a surface representation. Right, view of the hydrophobic binding site. Residues from helix 3 and the EF1/EF2 loop (Phe-48–Phe-58) are colored red, and residues in the EF3/EF4 loop region (Val-136–Pro-139) are colored brown. Conserved hydrophobic surface-exposed residues in the N-lobe site, which are involved with binding the D2R peptide, are highlighted in yellow (similar to those highlighted in Fig. 4B). D2R peptide in the N-site is shown with magenta ribbon for comparison. Ca^2+ ions are shown as brown spheres.

aggregation [1]: propensity to aggregate
Substance: MDFGSLETVVANSAFIAARGSFDGS [GRK1 peptide]
binding site on recoverin (recoverin): binding only in the N-lobe site
buried surface area of peptide (NCS-1; GRK1 peptide in hydrophobic groove, PDB 5AFP): 921 Å^2
copies of peptide bound per NCS-1 molecule (NCS-1; crystal structure, Ca2+/NCS-1, 2-fold excess of peptide): one

Substance: NCS-1ΔCT: C-terminal truncated mutant of NCS-1, residues Ser-178–Val-190 deleted
solution state [2]: polydisperse
NMR spectra of NCS-1ΔCT (NCS-1ΔCT): significant concentration-dependent line broadening

Substance: TFNIEFRKAFLKILHC [reference compound]
solubility ([1]; in water): insoluble in water
